Experimental data: ChEMBL document CHEMBL5260833, “An overview of quinazolines: Pharmacological significance and recent developments” (Eur J Med Chem, 2018)

Assays:
[1] = molecular target: T1, Type-2 angiotensin II receptor (Rattus norvegicus, UniProt P35351); assay: Binding affinity to AT2 in rat brain; format: tissue-based
T1 sequence (P35351 whole entry): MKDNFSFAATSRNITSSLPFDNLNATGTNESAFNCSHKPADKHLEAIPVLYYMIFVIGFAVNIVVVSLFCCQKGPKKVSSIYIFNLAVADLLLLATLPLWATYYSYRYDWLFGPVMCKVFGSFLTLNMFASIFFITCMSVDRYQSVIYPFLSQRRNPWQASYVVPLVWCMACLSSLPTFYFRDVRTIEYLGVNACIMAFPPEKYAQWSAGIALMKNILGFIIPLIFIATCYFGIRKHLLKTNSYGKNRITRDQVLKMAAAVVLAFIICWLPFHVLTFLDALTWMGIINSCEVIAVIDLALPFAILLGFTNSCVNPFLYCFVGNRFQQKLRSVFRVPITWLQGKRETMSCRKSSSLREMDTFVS

[2] = molecular target: T2, Type-1 angiotensin II receptor A (Rattus norvegicus, UniProt P25095); assay: Inhibition of rat adrenal cortex angiotensin II; format: tissue-based
T2 sequence (P25095 whole entry): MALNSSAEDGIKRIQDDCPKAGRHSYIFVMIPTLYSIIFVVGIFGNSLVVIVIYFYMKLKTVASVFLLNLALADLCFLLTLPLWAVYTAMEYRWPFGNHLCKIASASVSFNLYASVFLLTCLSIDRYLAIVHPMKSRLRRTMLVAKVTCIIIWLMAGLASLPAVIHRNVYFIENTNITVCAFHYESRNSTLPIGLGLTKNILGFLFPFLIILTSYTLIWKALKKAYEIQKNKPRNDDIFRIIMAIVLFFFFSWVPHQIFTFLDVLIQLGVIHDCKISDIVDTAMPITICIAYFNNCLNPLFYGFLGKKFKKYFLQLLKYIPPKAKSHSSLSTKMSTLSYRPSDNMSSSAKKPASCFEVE

Rattus norvegicus [3] = assay: Inhibition of AII induced mean arterial blood pressure in rat assessed as vasoconstrictor at 5 mg/kg, po; format: functional
Rattus norvegicus [4] = assay: Inhibition of AII induced rat assessed as vasoconstrictor at 15 mg/kg, iv; format: functional
Fusarium graminearum = assay: Antifungal activity against Gibberella zeae assessed as bacterial growth inhibition at 50 ug/ml incubated for 5 days relative to control; format: functional; conditions: 120 h, time 5 day
Fusarium oxysporum = assay: Antifungal activity against Fusarium oxysporum assessed as bacterial growth inhibition at 50 ug/ml incubated for 5 days relative to control; format: functional; conditions: 120 h, time 5 day
Cytospora mali = assay: Antifungal activity against Valsa mali assessed as bacterial growth inhibition at 50 ug/ml incubated for 5 days relative to control; format: functional; conditions: 120 h, time 5 day
Rattus norvegicus [5] = assay: Inhibition of AII induced mean arterial blood pressure in rat assessed as vasoconstrictor at 1 mg/kg, po; format: functional

SMILES: CCc1nc2ccc(N(CC=C(C)C)C(=O)c3ccccc3)cc2c(=O)n1Cc1ccc(-c2ccccc2-c2nn[nH]n2)cc1
- IC50 [1]: 0.46 nM

SMILES: CCCCc1nc2ccc(COC)cc2c(=O)n1Cc1ccc(-c2ccccc2-c2nn[nH]n2)cc1
- IC50 [2]: > 1000 nM
- Activity (Rattus norvegicus [3]): 65 mmHg

SMILES: CCCCCN(C(=O)c1ccccc1)c1ccc2nc(CCC)n(Cc3ccc(-c4ccccc4-c4nn[nH]n4)cc3)c(=O)c2c1
- IC50 [1]: 1 nM

SMILES: CCc1nc2ccc(N(Cc3ccccc3)C(=O)c3ccncc3)cc2c(=O)n1Cc1ccc(-c2ccccc2-c2nn[nH]n2)cc1
- IC50 [1]: 0.22 nM

SMILES: CCC1Nc2ccccc2C(=O)N1Cc1ccc(-c2ccccc2-c2nn[nH]n2)cc1 (configuration not stated)
- inhibition in vivo at 15 mg/kg (Rattus norvegicus [4]): 88%
- IC50 [2]: 45000 nM

SMILES: Cc1nc2ccc(N(Cc3ccccc3)C(=O)c3ccccc3)cc2c(=O)n1Cc1ccc(-c2ccccc2-c2nnn[nH]2)cc1
- IC50 [1]: 0.22 nM

SMILES: CCCCc1nc2ccc(C(C)(C)O)cc2c(=O)n1Cc1ccc(-c2ccccc2-c2nn[nH]n2)cc1
- IC50 [2]: 5 nM
- Activity (Rattus norvegicus [3]): 65 mmHg

SMILES: C=CCn1cnc2ccc(F)cc2c1=O
- inhibition at 50 µg/mL (Fusarium graminearum): 5.5%
- inhibition at 50 µg/mL (Fusarium oxysporum): 4.9%
- inhibition at 50 µg/mL (Cytospora mali): 0.9%

SMILES: CCn1cnc2ccccc2c1=O
- inhibition at 50 µg/mL (Fusarium graminearum): 5.5%
- inhibition at 50 µg/mL (Fusarium oxysporum): 4.9%
- inhibition at 50 µg/mL (Cytospora mali): 0.9%

SMILES: Cc1nc2ccc(N(Cc3ccccc3Cl)C(=O)c3ccccc3)cc2c(=O)n1Cc1ccc(-c2ccccc2-c2nn[nH]n2)cc1
- IC50 [1]: 0.06 nM

SMILES: CCCC1Nc2ccc(C(C)C)cc2C(=O)N1Cc1ccc(-c2ccccc2-c2nn[nH]n2)cc1 (configuration not stated)
- inhibition in vivo at 15 mg/kg (Rattus norvegicus [4]): 88%
- IC50 [2]: 50 nM

SMILES: CCCCC1N(Cc2ccc(-c3ccccc3-c3nn[nH]n3)cc2)C(=O)c2ccccc2N1C (configuration not stated)
- inhibition in vivo at 15 mg/kg (Rattus norvegicus [4]): 88%
- IC50 [2]: 14000 nM

SMILES: CCCCc1nc2ccc([C@@]3(C)C[C@H]4CC[C@H](C)N4O3)cc2c(=O)n1Cc1ccc(-c2ccccc2-c2nnn[nH]2)cc1
- Activity (Rattus norvegicus [5]): 55 mmHg

SMILES: CCCCc1nc2ccc([C@@]3(C(=O)O)C[C@H]4CCCN4O3)cc2c(=O)n1Cc1ccc(-c2ccccc2-c2nnn[nH]2)cc1
- Activity (Rattus norvegicus [5]): 55 mmHg

SMILES: CCCCc1nc2ccc([C@@]3(C)C[C@H]4CCCN4O3)cc2c(=O)n1Cc1ccc(-c2ccccc2-c2nn[nH]n2)cc1
- Activity (Rattus norvegicus [5]): 55 mmHg

SMILES: CCCCc1nc2ccc([C@H]3C[C@H]4CCCCN4O3)cc2c(=O)n1Cc1ccc(-c2ccccc2-c2nnn[nH]2)cc1
- Activity (Rattus norvegicus [5]): 55 mmHg

SMILES: CCC1Nc2ccc(C)cc2C(=O)N1Cc1ccc(-c2ccccc2-c2nn[nH]n2)cc1 (configuration not stated)
- inhibition in vivo at 15 mg/kg (Rattus norvegicus [4]): 88%
- IC50 [2]: 13000 nM

SMILES: CCCn1cnc2ccc(Cl)cc2c1=O
- inhibition at 50 µg/mL (Fusarium graminearum): 5.5%
- inhibition at 50 µg/mL (Fusarium oxysporum): 4.9%
- inhibition at 50 µg/mL (Cytospora mali): 40.9%

SMILES: C=CCn1cnc2ccc(Cl)cc2c1=O
- inhibition at 50 µg/mL (Fusarium graminearum): 5.5%
- inhibition at 50 µg/mL (Fusarium oxysporum): 4.9%
- inhibition at 50 µg/mL (Cytospora mali): 28.3%

SMILES: CCCCc1nc2ccc([C@]3(C)C[C@H]4CC[C@H](C)N4O3)cc2c(=O)n1Cc1ccc(-c2ccccc2-c2nnn[nH]2)cc1
- Activity (Rattus norvegicus [5]): 55 mmHg

SMILES: CCc1nc2ccc(N(Cc3ccccc3Cl)C(=O)c3ccccc3)cc2c(=O)n1Cc1ccc(-c2ccccc2-c2nn[nH]n2)cc1
- IC50 [1]: 0.22 nM

SMILES: CC(C)c1nc2ccc(N(Cc3ccccc3)C(=O)c3cccs3)cc2c(=O)n1Cc1ccc(-c2ccccc2-c2nnn[nH]2)cc1
- IC50 [1]: 0.22 nM

SMILES: CCCCc1nc2ccc(C(C)NC(C)=O)cc2c(=O)n1Cc1ccc(-c2ccccc2-c2nn[nH]n2)cc1 (configuration not stated)
- IC50 [2]: > 1000 nM
- Activity (Rattus norvegicus [3]): 65 mmHg

SMILES: CCCCc1nc2ccc([C@@]3(C(=O)N4CCCC4)C[C@H]4CCCN4O3)cc2c(=O)n1Cc1ccc(-c2ccccc2-c2nnn[nH]2)cc1
- Activity (Rattus norvegicus [5]): 55 mmHg

SMILES: CCCCc1nc2ccc(C(C)OC)cc2c(=O)n1Cc1ccc(-c2ccccc2-c2nn[nH]n2)cc1 (configuration not stated)
- IC50 [2]: 18 nM
- Activity (Rattus norvegicus [3]): 65 mmHg

SMILES: CCCCc1nc2ccc([C@@]3(C(=O)N(C)C)C[C@H]4CCCN4O3)cc2c(=O)n1Cc1ccc(-c2ccccc2-c2nnn[nH]2)cc1
- Activity (Rattus norvegicus [5]): 55 mmHg
